Results published in patent US9499502B2, “5-substituted iminothiazines and their mono- and dioxides as BACE inhibitors, compositions, and their use” (Merck Sharp & Dohme Corp., priority 2011, dated 2016).

Molecular target: soluble human BACE1 catalytic domain (Homo sapiens (Human), UniProt P56817)
Assay: BACE1 HTRF FRET Assay
Conditions: read-out: BACE1 Ki; Ki calculated from IC50 using the Cheng-Prusoff equation

soluble human BACE1 catalytic domain, sequence (P56817 75-416): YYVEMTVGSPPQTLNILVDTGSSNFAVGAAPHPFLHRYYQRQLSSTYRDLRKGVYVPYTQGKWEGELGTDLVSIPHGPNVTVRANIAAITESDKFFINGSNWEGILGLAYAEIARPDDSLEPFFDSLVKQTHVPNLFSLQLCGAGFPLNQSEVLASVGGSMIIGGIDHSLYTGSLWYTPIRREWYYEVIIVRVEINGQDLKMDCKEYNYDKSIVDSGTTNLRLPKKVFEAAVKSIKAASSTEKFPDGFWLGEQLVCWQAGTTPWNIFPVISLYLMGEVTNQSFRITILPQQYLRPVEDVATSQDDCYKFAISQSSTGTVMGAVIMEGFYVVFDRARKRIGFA

Structure (SMILES): CC1(C)C(=N)N[C@](C)(c2nc(NC(=O)c3ccncn3)ccc2F)CS1(=O)=O [Example 9ch]
- Ki: 101 nM

Structure (SMILES): CC[C@@]1(C)C(=N)N[C@](C)(c2cc(NC(=O)c3ccc(F)cn3)ccc2F)CS1(=O)=O [Example 9cl-a]
- Ki: 5.9 nM

Structure (SMILES): CC[C@]1(C)C(=N)N[C@](C)(c2cc(NC(=O)c3ccc(F)cn3)ccc2F)CS1(=O)=O [Example 9cl-b]
- Ki: 22.5 nM

Structure (SMILES): CC[C@@]1(C)C(=N)N[C@](C)(c2cc(NC(=O)c3ccc(OC)cn3)ccc2F)CS1(=O)=O [Example 9cm-a]
- Ki: 5.6 nM

Structure (SMILES): C[C@@]1(c2cc(NC(=O)c3ccc(F)cn3)ccc2F)CS(=O)(=O)[C@@](C)(c2cccc(C(F)(F)F)c2)C(=N)N1 [Example 9co-a]
- Ki: 5.8 nM

Structure (SMILES): COCC(=O)Nc1ccc(F)c([C@]2(C)CS(=O)(=O)[C@@](C)(c3cccc(C(F)(F)F)c3)C(=N)N2)c1 [Example 9cp-a]
- Ki: 18 nM

Structure (SMILES): COc1cnc(C(=O)Nc2ccc(F)c([C@]3(C)CS(=O)(=O)[C@@](C)(C4CC4)C(=N)N3)c2)cn1 [Example 9cq-a]
- Ki: 13.3 nM

Structure (SMILES): C[C@]1(CC2CCOCC2)C(=N)N[C@](C)(c2cc(NC(=O)c3ccc(F)cn3)ccc2F)CS1(=O)=O [Example 9cr-a]
- Ki: 2.1 nM

Structure (SMILES): C[C@]1(CC2CCOCC2)C(=N)N[C@](C)(c2cc(NC(=O)c3ccc(Cl)cn3)ccc2F)CS1(=O)=O [Example 9cs-a]
- Ki: 1.6 nM

Structure (SMILES): COc1cnc(C(=O)Nc2ccc(F)c([C@]3(C)CS(=O)(=O)[C@@](C)(CC4CCOCC4)C(=N)N3)c2)cn1 [Example 9ct-a]
- Ki: 3.9 nM

Structure (SMILES): C[C@@]1(c2cc(NC(=O)c3ccc(F)cn3)ccc2F)CS(=O)(=O)[C@@](C)(c2ccccn2)C(=N)N1 [Example 9cv-a]
- Ki: 7.8 nM

Structure (SMILES): C[C@@]1(c2cc(NC(=O)c3ccc(Cl)cn3)ccc2F)CS(=O)(=O)[C@@](C)(c2ccccn2)C(=N)N1 [Example 9cw-a]
- Ki: 4.4 nM

Structure (SMILES): COc1ccc(C(=O)Nc2ccc(F)c([C@]3(C)CS(=O)(=O)[C@@](C)(c4ccccn4)C(=N)N3)c2)nc1 [Example 9cx-a]
- Ki: 7.1 nM

Structure (SMILES): COc1cnc(C(=O)Nc2ccc(F)c([C@]3(C)CS(=O)(=O)C(C)(C)C(=N)N3)c2)c(F)c1 [Example 9d]
- Ki: 5.4 nM

Structure (SMILES): C[C@@]1(c2cc(NC(=O)c3ccc(F)cn3)ccc2F)CS(=O)(=O)[C@@](C)(c2cccc(F)c2)C(=N)N1 [Example 9da-a]
- Ki: 3.6 nM

Structure (SMILES): COc1ccc(C(=O)Nc2ccc(F)c([C@]3(C)CS(=O)(=O)[C@](C)(c4cccc(F)c4)C(=N)N3)c2)nc1 [Example 9dc-b]
- Ki: 216 nM

Structure (SMILES): COc1cnc(C(=O)Nc2ccc(F)c([C@]3(C)CS(=O)(=O)[C@@](C)(c4cccc(F)c4)C(=N)N3)c2)cn1 [Example 9dd-a]
- Ki: 3.9 nM

Structure (SMILES): C[C@@]1(c2cc(NC(=O)c3ccc(C(F)(F)F)cn3)ccc2F)CS(=O)(=O)[C@@](C)(c2cccc(F)c2)C(=N)N1 [Example 9de-a]
- Ki: 3.5 nM

Structure (SMILES): C[C@@]1(c2cc(NC(=O)c3ccc(F)cn3)ccc2F)CS(=O)(=O)[C@@](C)(c2ccc(F)cc2)C(=N)N1 [Example 9df-a]
- Ki: 2.3 nM

Structure (SMILES): COc1cnc(C(=O)Nc2ccc(F)c([C@]3(C)CS(=O)(=O)[C@@](C)(c4ccc(F)cc4)C(=N)N3)c2)cn1 [Example 9dg-a]
- Ki: 4.5 nM

Structure (SMILES): C[C@]1(CC2CC2)C(=N)N[C@](C)(c2cc(NC(=O)c3ccc(F)cn3)ccc2F)CS1(=O)=O [Example 9dh-a]
- Ki: 7.5 nM

Structure (SMILES): C[C@@]1(c2cc(NC(=O)c3ccc(F)cn3)ccc2F)CS(=O)(=O)[C@](C)(CC2CC2)C(=N)N1 [Example 9dh-b]
- Ki: 47.4 nM

Structure (SMILES): C[C@]1(CC2CC2)C(=N)N[C@](C)(c2cc(NC(=O)c3ccc(Cl)cn3)ccc2F)CS1(=O)=O [Example 9di-a]
- Ki: 4.3 nM

Structure (SMILES): C[C@@]1(c2cc(NC(=O)c3ccc(Cl)cn3)ccc2F)CS(=O)(=O)[C@](C)(CC2CC2)C(=N)N1 [Example 9di-b]
- Ki: 15.6 nM

Structure (SMILES): COc1ccc(C(=O)Nc2ccc(F)c([C@]3(C)CS(=O)(=O)[C@@](C)(CC4CC4)C(=N)N3)c2)nc1 [Example 9dj-a]
- Ki: 4.3 nM

Structure (SMILES): COc1ccc(C(=O)Nc2ccc(F)c([C@]3(C)CS(=O)(=O)[C@](C)(CC4CC4)C(=N)N3)c2)nc1 [Example 9dj-b]
- Ki: 26.9 nM

Structure (SMILES): COc1cnc(C(=O)Nc2ccc(F)c([C@]3(C)CS(=O)(=O)[C@@](C)(CC4CC4)C(=N)N3)c2)cn1 [Example 9dk-a]
- Ki: 7 nM

Structure (SMILES): C[C@]1(CC2CC2)C(=N)N[C@](C)(c2cc(NC(=O)c3ccc(C(F)(F)F)cn3)ccc2F)CS1(=O)=O [Example 9dl-a]
- Ki: 4.4 nM

Structure (SMILES): C=CC[C@@]1(C)C(=N)N[C@](C)(c2cc(NC(=O)c3cnc(OC)cn3)ccc2F)CS1(=O)=O [Example 9dm-a]
- Ki: 4 nM

Structure (SMILES): C[C@@]1(c2cc(NC(=O)c3ccc(F)cn3)ccc2F)CS(=O)(=O)[C@@](C)(c2ccccc2F)C(=N)N1 [Example 9dn-a]
- Ki: 21.4 nM

Structure (SMILES): C[C@]1(CC(F)(F)F)C(=N)N[C@](C)(c2cc(NC(=O)c3ccc(F)cn3)ccc2F)CS1(=O)=O [Example 9dp-a]
- Ki: 6.2 nM

Structure (SMILES): COc1ccc(C(=O)Nc2ccc(F)c([C@]3(C)CS(=O)(=O)[C@@](C)(CC(F)(F)F)C(=N)N3)c2)nc1 [Example 9dq-a]
- Ki: 8.5 nM

Structure (SMILES): C[C@@]1(c2cc(NC(=O)c3ccc(F)cn3)ccc2F)CS(=O)(=O)[C@@](C)(C2CCOCC2)C(=N)N1 [Example 9ds-a]
- Ki: 3.5 nM

Structure (SMILES): COc1ccc(C(=O)Nc2ccc(F)c([C@]3(C)CS(=O)(=O)[C@@](C)(C4CCOCC4)C(=N)N3)c2)nc1 [Example 9dt-a]
- Ki: 3 nM

Structure (SMILES): COc1cnc(C(=O)Nc2ccc(F)c([C@]3(C)CS(=O)(=O)[C@@](C)(C4CCOCC4)C(=N)N3)c2)cn1 [Example 9du-a]
- Ki: 3.4 nM

Structure (SMILES): C[C@@]1(c2cc(NC(=O)c3ccc(F)cn3)ccc2F)CS(=O)(=O)[C@@](C)(C2CCC2)C(=N)N1 [Example 9dv-a]
- Ki: 7 nM

Structure (SMILES): COc1cnc(C(=O)Nc2ccc(F)c([C@]3(C)CS(=O)(=O)[C@@](C)(C4CCC4)C(=N)N3)c2)cn1 [Example 9dy-a]
- Ki: 7.5 nM

Structure (SMILES): C[C@@]1(c2cc(NC(=O)c3ccc(C(F)(F)F)cn3)ccc2F)CS(=O)(=O)[C@@](C)(C2CCC2)C(=N)N1 [Example 9dz-a]
- Ki: 3.4 nM

Structure (SMILES): CC1(C)C(=N)N[C@](C)(c2cc(NC(=O)c3cnc(C(F)(F)F)cn3)ccc2F)CS1(=O)=O [Example 9e]
- Ki: 0.7 nM

Structure (SMILES): CC(C)[C@@]1(C)C(=N)N[C@](C)(c2cc(NC(=O)c3ccc(F)cn3)ccc2F)CS1(=O)=O [Example 9ea-a]
- Ki: 31.6 nM

Structure (SMILES): COc1ccc(C(=O)Nc2ccc(F)c([C@]3(C)CS(=O)(=O)[C@@](C)(C(C)C)C(=N)N3)c2)nc1 [Example 9eb-a]
- Ki: 16.5 nM

Structure (SMILES): C[C@@]1(c2cc(NC(=O)c3ccc(F)cn3)ccc2F)CS(=O)(=O)[C@@](C)(c2cc(C(F)(F)F)ccn2)C(=N)N1 [Example 9ed-a]
- Ki: 1.6 nM

Structure (SMILES): C[C@@]1(c2cc(NC(=O)c3ccc(F)cn3)ccc2F)CS(=O)(=O)[C@@](C)(c2cc(C(F)(F)F)ccn2)C(=N)N1 [Example 9ed-b]
- Ki: 15.1 nM

Structure (SMILES): CC1(C)C(=N)N[C@](C)(c2cc(NC(=O)c3ccc(F)cc3F)ccc2F)CS1(=O)=O [Example 9f]
- Ki: 11 nM

Structure (SMILES): Cc1nc(C(=O)Nc2ccc(F)c([C@]3(C)CS(=O)(=O)C(C)(C)C(=N)N3)c2)no1 [Example 9g]
- Ki: 1.9 nM

Structure (SMILES): Cc1noc(C(=O)Nc2ccc(F)c([C@]3(C)CS(=O)(=O)C(C)(C)C(=N)N3)c2)n1 [Example 9h]
- Ki: 2.7 nM

Structure (SMILES): CC1(C)C(=N)N[C@](C)(c2cc(NC(=O)c3ccn(C(F)F)n3)ccc2F)CS1(=O)=O [Example 9j]
- Ki: 0.6 nM

Structure (SMILES): CC1(C)C(=N)N[C@](C)(c2cc(NC(=O)c3ccc(F)cn3)cc(F)c2F)CS1(=O)=O [Example 9k]
- Ki: 9.7 nM
